The structures appear in SMILES notation.

The target of the assay is T1, Caspase-3 (Homo sapiens, UniProt P42574).
T1 sequence (P42574 whole entry): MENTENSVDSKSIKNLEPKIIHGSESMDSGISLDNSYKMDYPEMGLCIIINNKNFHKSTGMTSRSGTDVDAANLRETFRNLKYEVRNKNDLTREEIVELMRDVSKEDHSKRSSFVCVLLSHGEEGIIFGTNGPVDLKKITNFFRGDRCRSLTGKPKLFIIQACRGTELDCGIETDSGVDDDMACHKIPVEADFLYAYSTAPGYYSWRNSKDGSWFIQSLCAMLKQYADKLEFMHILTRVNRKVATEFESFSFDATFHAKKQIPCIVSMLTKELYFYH
The assay is described as follows: procaspase-3 activators, dose response, biochemical, absorbance (AID 489014).

`O=C(CC1=NC2(CCCC2)Cc2ccccc21)C(=O)NN=Cc1ccccc1O` [SMR000219463]: the EC50 – broadly, the concentration at which the effect is half-maximal – was greater than 85.3 µM.

`O=c1c2c(-c3ccccc3)[nH]n(-c3ccccc3)c-2c(O)n1-c1ccccc1` [SMR000269383]: the EC50 was greater than 85.3 µM.

Values taken from BindingDB's records for doi:10.7270/Q2Z31X4P (The Scripps Research Institute Molecular Screening Center, 2010).
